Laboratory results taken from publication PMC10354055, “An optimized Nurr1 agonist provides disease-modifying effects in Parkinson’s disease models” (Nature Communications, 2023).
Where “and” joins values, the source holds several entries; their conditions need not be identical. Equal entries are not always repeated. Where two headings read alike, the source gives them in different places.

Assays:
Nurr1-LBD = Nurr1-LBD (Homo sapiens, UniProt P43354); assay: TR-FRET competition assay with HCQFluo; format: binding; details: Fig. 1i; for IC50: competition with HCQFluo
Method: TR-FRET assay was performed in PPI Terbium (Tb) detection buffer (PerkinElmer) and contained 0.2 µM of Nurr1-LBD, 0.5 µM of fluorescence-labeled hydroxy-CQ (HCQFluo; Proimaging) and serial concentrations of CQ, 4A7C-301 or RA (10^−4–10^6 nM). Rabbit anti-Nurr1 antibody (3 nM; prepared in our lab) and anti-rabbit IgG-Tb (1:400; Cisbio, 61PARTAF) were included in the assay solution as a donor complex. Assay solutions were loaded in a 384-well OptiPlate™ (PerkinElmer). After 2 h incubation in the dark at room temperature, the FRET signal was measured by excitation at 340 nm and emission at 520 nm for fluorescein and 495 nm for Tb using a VICTOR Nivo plate reader (PerkinElmer). Data were fit using the non-linear regression program in GraphPad Prism version 8.0.2.

N27-A cells = details: for LDH release (%): Fig. 2b, MPP+, CQ 100 µM, 4A7C-301 1 µM; for MPP+-induced cytotoxicity (in words): N27-A and MN9D cells, dose-dependent
Method: SK-N-BE(2)C human neuroblastoma, BV2 mouse microglia (ATCC), HeLa and MN9D cell lines were cultured in Dulbecco’s Modified Eagle Medium (DMEM) supplemented with 10% fetal bovine serum (FBS) and 100 U /ml penicillin and 100 μg /ml streptomycin. The murine MN9D dopaminergic cell line was kindly provided by Drs. Michael Zigmond and Juliann Jaumotte from the University of Pittsburgh. The N27-A rat dopaminergic cell line was kindly provided by Dr. Curt Freed from the University of Colorado School of Medicine. […] For transactivity assay, SK-N-BE(2)C and N27-A cell lines were transfected with pCMV-fNurr1, pGAL-Nurr1(LBD), pGAL-Nor1(LBD) or pGAL-Nur77(LBD) and reporter construct (p4xNL3-Luc for fNurr1 or p8xUAS-Luc for LBD constructs). pRSV-β-gal was co-transfected as an internal control. Cells were lysed in a lysis buffer (25 mM Tris-phosphate (pH 7.8), 2 mM DTT, 2 mM DCTA (1,2-diaminocyclohexane-N,N,N′,N′-tetraacetic acid), 10% glycerol, and 1% Triton X-100) 24 h after transfection, followed by adding firefly luciferase substrate for luminescence detection measured by a luminometer plate reader (SpectraMax®; Molecular device). Nurr1 transactivity was normalized to β-galactosidase activity. […] For Nurr1 stability determination, MN9D cells were incubated with MPP^+ (0.5 mM) for 2, 4, 8, 16, 24, and 32 h, or were transduced with lentivirus expressing GFP only or αSyn (wild-type or A53T) then harvested 24, 48 and 72 h after transduction. For autophagolysosome (APL) formation assay, HeLa and N27-A cells were transfected with mRFP-GFP-LC3 (Addgene) using Lipofectamine 2000 (Invitrogen). The medium was changed with starvation medium (Earle’s Balanced Salt Solution; EBSS) 24 h after transfection for autophagy induction.
Cells were transfected with Nurr1 subcloned into pcDNA3.1 vector[23] for Nurr1 overexpression (OE). […] Nurr1 OE or KD by transfection was analyzed by Western blot.
Cellular oxidative stress was detected using the DCFDA Cellular ROS Assay Kit (Abcam) according to the manufacturer’s protocol. Briefly, cells seeded in black clear bottom 96 well plate were stained with DCFDA solution (20 µM) for 45 min at 37 °C. […] Cytotoxicity was determined by measuring lactate dehydrogenase (LDH) release into the culture medium using a LDH cytotoxicity detection kit (Roche)[33]. Absorbance was measured at 490 nm with a microplate reader and cytotoxicity was calculated as a percentage (%) relative to 1% TritonX-100 control. Cell viability was determined using 3-(4,5-dimethylthiazol-2-yl)-2,5-diphenyltetrazolium bromide (MTT) as previously described. Briefly, cells were incubated with 5 mg/ml of MTT (Sigma-Aldrich) solution for 3.5 h at 37 °C. MTT formazan crystals were dissolved in 10 times the volume of MTT solvent (4 mM HCl and 0.1% Nonidet P-40 in isopropanol) and the absorbance from the generated blue formazan was measured at 570 nm after 15 min incubation at room temperature. Cell viability was calculated as a percentage (%) of MTT reduction relative to vehicle control.

HeLa cells = assay: Lysosomal pH detection, LysoSensor, HeLa cells; format: cell-based; details: for Lysosomal pH: Supplementary Figure S7d, individual replicates
Method: Lysosomal pH was detected as previously described. Briefly, after incubation in EBSS containing BafA1 (10 nM), CQ (20 µM), or 4A7C-301 (1 µM) for 6 h, HeLa and N27-A cells were treated with LysoSensor™ Yellow/Blue DND-160 (5 µM; Life Technology) for 45 min, followed by 2 washes in HEPES buffer (Gibco). Fluorescence images at excitation/emission wavelengths of 360/460 nm and 470/525 nm were taken immediately using a 400 nm dichroic mirror (KEYENCE). The ratio of fluorescence intensities (F360/470) were measured and calculated manually using ImageJ for each cell. The average pH from measuring 5 cells from each of three wells for each treatment group in both HeLa and N27-A cells was calculated by fitting the F360/470 values to a plotted pH calibration curve with KCl/NaCl buffered from pH 3.5 to 7.0 using GraphPad Prism (Version 8.0.2).

Chain of Nurr1-LBD (P43354 360-595 limits assumed, species assumed): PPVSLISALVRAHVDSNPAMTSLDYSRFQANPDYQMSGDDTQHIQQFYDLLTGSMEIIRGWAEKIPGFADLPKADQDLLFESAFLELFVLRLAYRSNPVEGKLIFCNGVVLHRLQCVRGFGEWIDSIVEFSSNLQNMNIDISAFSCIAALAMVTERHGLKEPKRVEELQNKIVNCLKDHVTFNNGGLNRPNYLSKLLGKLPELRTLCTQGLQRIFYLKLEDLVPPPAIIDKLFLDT

Compound | Interaction [HTRF] (Nurr1-LBD; 0.05 µM) | Interaction [HTRF] (Nurr1-LBD; 0.1 µM) | Interaction [HTRF] (Nurr1-LBD; 0.5 µM) | Interaction [HTRF] (Nurr1-LBD; 1 µM) | Interaction [HTRF] (Nurr1-LBD; 5 µM) | Interaction [HTRF] (Nurr1-LBD; 10 µM) | Interaction [HTRF] (Nurr1-LBD; 50 µM) | Interaction [HTRF] (Nurr1-LBD; 100 µM) | Interaction [HTRF] (Nurr1-LBD; 200 µM) | IC50 (Nurr1-LBD) | LDH release (%) (N27-A cells; Control) | LDH release (%) (N27-A cells; Nurr1 KD) | LDH release (%) (N27-A cells; Nurr1 OE) | MPP+-induced cytotoxicity (in words) (N27-A cells) | concentration of maximal efficiency, times lower than CQ (N27-A cells; N27-A cells, MPP+-induced cytotoxicity) | Lysosomal pH (HeLa cells) | lysosomal pH (in words) (HeLa cells; HeLa, BafA1 10 nM, CQ 20 µM, 4A7C-301 1 µM)
CCN1CCN(c2cc(N3CCN(CC)CC3)nc(NCCNc3ccnc4cc(Cl)ccc34)n2)CC1 [4A7C-301, N^1-(4,6-bis(4-ethylpiperazin-1-yl)pyrimidin-2-yl)-N^2-(7-chloroquinolin-4-yl)ethane-1,2-diamine] | 3265.9820 and 3537.6830 and 3401.8330 | 3598.5100 and 3223.1060 and 3410.8080 | 3591.7500 and 3214.1330 and 3402.9410 | 2993.5610 and 3208.3240 and 3100.9430 | 3661.8470 and 3369.4680 and 3515.6580 | 3348.5030 and 3240.2560 and 3294.3790 | 3293.1070 and 2930.3900 and 3111.7480 | 3045.7890 and 3264.7900 and 3155.2890 | 3424.3450 and 3220.2860 and 3322.3150 | 108 nM and 100 nM | 36.8915% and 36.4082% and 36.6047% and 36.8443% | 55.7866% and 55.7395% and 55.4251% and 55.8102% | 22.7388% and 23.725% and 22.6956% and 22.8802% | significantly decreased | ~ 20 times | 4.318 and 4.4486 and 4.774 and 4.612 and 4.807 and 4.905 and 4.677 and 3.797 and 4.742 and 4.872 and 3.764 and 3.96 and 3.927 and 3.536 | –
CCN(CC)CCCC(C)Nc1ccnc2cc(Cl)ccc12 (centres unmarked) [CQ, chloroquine] | 3273.3930 and 3465.5840 and 3369.4880 | 3399.0860 and 3151.8330 and 3275.4590 | 3111.7350 and 2901.1980 and 3006.4660 | 2895.7250 and 2781.2580 and 2838.4910 | 2113.6450 and 1994.2770 and 2053.9610 | 1574.8930 and 1346.8690 and 1460.8810 | 1485.2580 and 1344.1380 and 1414.6980 | 1202.4890 and 1355.5820 and 1279.0350 | 1193.4910 and 1136.9480 and 1165.2200 | 2330 nM and 2000 nM | 38.0191% and 38.0584% and 38.4906% and 38.2156% | 55.7041% and 55.6609% and 55.7395% and 55.7788% | 24% and 23.9568% and 23.9529% and 23.9254% | significantly decreased | – | 5.589 and 4.742 and 6.013 and 6.078 and 6.11 and 5.947 and 5.068 and 6.501 and 6.208 and 6.469 and 5.524 and 5.98 and 6.534 and 5.556 | significantly increased
